From US20170003277A1 (priority 2015, published 2017)

Tests used:
Type in all cases: cell-based
[1] = tested on: THP-1 human monocyte cell line; assay: Pathway enrichment (DAVID) in THP-1 cells, Example 9; conditions: genes upregulated vs mannitol, 6 hours
Method: Nucleic Acids Res. 37, 1-13 (2009)]. Pathway enrichment results were visualized using volcano plots, plotting −log p-values versus enrichment scores. For GA MOA, to obtain top-gene lists of appropriate size (tens-hundreds) for use with DAVID, an absolute-value fold-change cutoff of 1.5 and p-value cutoff of 1e-3 were utilized to obtain gene lists for pathway enrichment. […] DAVID runs were conducted on Sep. […] Please note that the GO databases are updated daily (as noted on the GO site:www.geneontology.org/GO.downloads.ontology.shtml) and therefore performing the same enrichments on the same genesets may yield slightly varying results depending on the rundate. Pathway p-values may change slightly between runs conducted at different times; the overall picture of enriched pathways, however, is expected to remain consistent.
Performing the same enrichments on the same genesets may yield slightly varying results depending on the run date (GO databases are updated daily: www.geneontology.org/GO.downloads.ontology.shtml).

[2] = tested on: THP-1 human monocyte cell line; assay: Luminex secreted cytokines and chemokines from THP-1 cells, 24 hours, Polimunol or Probioglat vs Copaxone (Example 13); conditions: mannitol control
Method: To evaluate effects of Copaxone at the protein level, and assess the extent to which differences observed at the mRNA level (using micaroarry and qRT-PCR) were further consistent with effects observed at the level of the translated proteins, levels of 42 secreted cytokines and chemokines were measured using Luminex technology, analyzing the supernatant of THP-1 cells (human monocyte cell line) stimulated for 24 hours with Copaxone, FOGA, or mannitol control.
Measurements were also undertaken at the protein level, in order to assess the biological relevance of the observed gene expression differences. Levels of a panel of secreted cytokines and chemokines were measured via Luminex from THP-1 cells stimulated with branded GA, Polimunol, or Probioglat.
Cells from the THP-1 human monocyte cell line were incubated with branded GA, FOGA (Polimunol or Probioglat), or vehicle control (mannitol) for 24 hours. This time point was chosen in order to reflect translation of mRNA expression patterns observed in the same study design at 6 hours post stimulation. Supernatants were collected and assayed for the concentration of selected proteins using a Luminex assay. A total of 5 biological replicates per condition were utilized.
Data (concentrations in pg/mL) were compared using a two-sided t-test with equal variance, and corrected for multiple hypothesis testing using Benjamini-Hochberg correction. […]

[3] = tested on: THP-1 human monocyte cell line; assay: Microarray gene expression in THP-1 cells, Polimunol vs Copaxone, two repeats, 6 hours (Example 11)
mouse splenocytes = assay: Microarray gene expression of splenocytes from Copaxone- or Polimunol-immunized mice activated ex vivo with Copaxone or Polimunol
Method: All experimental procedures conformed to accepted ethical standards for use of animals in research and were in accordance with Committee for the Care and Use of Experimental Animals guidelines and approved by the Teva Institutional Animal Care and Use Committee. For these experiments, 8- to 12-week-old female (Balb/c X SJL) F1 mice (Janvier, France) were purchased. Mice were kept at 21±3° C.; the relative humidity was 30-70%, the light/dark cycle was 12/12 h. Animals were maintained on a standard rodent pellet diet and sterile filtered tap water available ad libitum.
To stimulate induction of GA-reactive T cells, twelve mice were injected with 100 μL of a 2.5 mg/mL solution of GA reference standard (GA-RS) in phosphate-buffered saline (250 μg GARS per mouse). GA-RS (Teva) is a selected GA drug substance batch defined as the standard batch and used as a reference in quality control release tests of all Copaxone® batches. Another group of twelve mice were injected with 100 μL of a 2.5 mg/mL solution of Polimunol in phosphate-buffered saline (250 μg Polimunol per mouse). Polimunol is a proposed generic manufactured a company other than Teva. […] A single cell suspension was prepared. After red blood cells lysis, splenocytes from the same immunization group were pulled and resuspended to a final concentration of 10×10^6 cells/mL in defined cell culture media (DCCM1) (Biological Industries, Beit Haemek, Israel) (96.7% v/v) enriched with L-glutamine 2 mM (1% v/v), MEM Non-Essential Amino Acids 2 mM (1% v/v), sodium pyruvate 1 mM (1% v/v), antibiotic/antimycotic solution (0.2% v/v) and 2-mercaptoethanol 50 mM (0.1% v/v).
Splenocytes were treated with activator samples diluted in medium (125 μL per well of 80 μg/mL solutions, final concentration in the well: 40 μg/mL) of: i) 3 different batches of GA drug product manufactured by Teva ii) one batch of proposed generic (Polimunol). Polimunol is a product marketed as generic GA and manufactured by a company other than Teva (i.e. Synthon). […] Splenocytes (125 μL 10×10^6 SPL cell/mL suspension) were added to the activator solutions. Each activator sample was loaded in two different plates. One for the cells from mice immunized with GA and one for cells from mice immunized with proposed generic. Plates were incubated for 24 h at 37° C. Cells were collected from the wells and were centrifuged at 300 g for 5 minutes. Supernatants were aspirated and cell pellets were resuspended in RLT buffer (from RNeasy mini kit of Qiagen, Cat #74106) for cell lysis. The cell lysates were centrifuged and supernatants were collected and frozen at −70° C. Samples were sent for further processing.
For additional detail on experimental methods used in mouse studies, please refer to publications [Bakshi et al; Towfic et al]. Note that in this study, mice were immunized with either Copaxone® or Polimunol, and subsequently splenocytes were isolated and treated ex vivo with Copaxone® or Polimunol. RNA was extracted and expression profiled across the entire genome using the Affymetrix Mouse Genome 430 2 chip. Three lots of Copaxone®, and one lot of Polimunol were comparatively tested in six replicates each.
Outlier samples were identified using the R package ArrayQCMetrics and excluded from further data processing steps. A sample was considered an outlier if it failed more than half of the included tests either before or after RMA normalization. Data were RMA normalized using the Affy R package.
Correction for batch variation was performed using ComBat as described above (THP-1 methods). Date of microarray experiment was used as batch, and the combination of treatment and immunization was used as covariate.
Differentially expressed probesets were identified across conditions using linear models for microarray data (LIMMA; Smyth, G. K. (2004)), a standard R Bioconductor package. Linear models and empirical Bayes methods for assessing differential expression in microarray experiments. […]

[4] = In two prior THP-1 studies (intersection of both prior datasets)
[5] = Intersection of prior THP-1 studies and current study

Substance: glatiramer acetate [Copaxone®]
- Fold Enrichment ([1]; GO:0001503~ossification (GOTERM BP_ALL)): 4.068
- Fold Enrichment ([1]; GO:0007204~elevation of cytosolic calcium ion concentration (GOTERM BP_ALL)): 4.773
- Fold Enrichment ([1]; GO:0010557~positive regulation of macromolecule biosynthetic process (GOTERM BP_ALL)): 1.871
- Fold Enrichment ([1]; GO:0010628~positive regulation of gene expression (GOTERM BP_ALL)): 1.936
- Fold Enrichment ([1]; GO:0051241~negative regulation of multicellular organismal process (GOTERM BP_ALL)): 3.649
- CCL2 secreted level relative to control [2]: not modulated
- Probesets significantly modulated by Copaxone relative to mannitol ([3]; 6 hours): 12,115
- IL1ORA expression relative to mannitol ([3]; FDR p<1.7e-21): significantly upregulated
- Probesets downregulated by Copaxone versus mannitol with FC ≦ −1.5, number ([3]; In current study): 28
- Probesets upregulated by Copaxone versus mannitol with FC ≧ 1.5, number ([3]; In current study): 156
- Probesets downregulated by Copaxone versus mannitol with FC ≦ −1.5, number [3, 4]: 15
- Probesets upregulated by Copaxone versus mannitol with FC ≧ 1.5, number [3, 4]: 149
- Probesets downregulated by Copaxone versus mannitol with FC ≦ −1.5, number [3, 5]: 9
- Probesets upregulated by Copaxone versus mannitol with FC ≧ 1.5, number [3, 5]: 94
- IL1RN expression relative to mannitol ([3]; all 3 present probesets: FDR p values<6.2e-21, 2.6e-17, 8.0e-14): strongly upregulated
- IL10 expression relative to mannitol ([3]; single probeset not present): not upregulated significantly
- Significant probesets in pairwise comparisons between three Copaxone lots ([3]; two comparisons / third comparison (adjusted p value 0.044)): zero and single
- Probesets significantly downregulated by Copaxone ([3]; vs mannitol, 6 hours): 6819
- Probesets significantly upregulated by Copaxone ([3]; vs mannitol, 6 hours): 5296
- Foxp3 expression (mouse splenocytes; Copaxone immunization, adj p<3.4e-23): upregulated
- Gpr83 expression (mouse splenocytes; Copaxone immunization, two probesets, adj p<4.2e-33 and 9.0e-31): upregulated
- Probesets downregulated by Copaxone relative to medium (mouse splenocytes; Copaxone-immunized mice): 8,305
- Probesets downregulated by Copaxone relative to medium, |FC|≧2 (mouse splenocytes; Copaxone-immunized mice): 485
- Probesets significantly modulated by Copaxone relative to medium (mouse splenocytes; Copaxone-immunized mice): 16,647
- Probesets upregulated by Copaxone relative to medium (mouse splenocytes; Copaxone-immunized mice): 8,342
- Probesets upregulated by Copaxone relative to medium, |FC|≧2 (mouse splenocytes; Copaxone-immunized mice): 411
